The source of these data is ChEMBL document CHEMBL1143695, “Synthesis and biological studies of novel 2-aminoalkylethers as potential antiarrhythmic agents for the conversion of atrial fibrillation” (J Med Chem, 2007).

pIC50: −log10 of the molar value. Calls of active or inactive are those of the source. No cut-off for these calls is given here.

Data set [1] has as its target T1, Potassium voltage-gated channel subfamily B member 1 (Rattus norvegicus, UniProt P15387).
T1 sequence (P15387 whole entry): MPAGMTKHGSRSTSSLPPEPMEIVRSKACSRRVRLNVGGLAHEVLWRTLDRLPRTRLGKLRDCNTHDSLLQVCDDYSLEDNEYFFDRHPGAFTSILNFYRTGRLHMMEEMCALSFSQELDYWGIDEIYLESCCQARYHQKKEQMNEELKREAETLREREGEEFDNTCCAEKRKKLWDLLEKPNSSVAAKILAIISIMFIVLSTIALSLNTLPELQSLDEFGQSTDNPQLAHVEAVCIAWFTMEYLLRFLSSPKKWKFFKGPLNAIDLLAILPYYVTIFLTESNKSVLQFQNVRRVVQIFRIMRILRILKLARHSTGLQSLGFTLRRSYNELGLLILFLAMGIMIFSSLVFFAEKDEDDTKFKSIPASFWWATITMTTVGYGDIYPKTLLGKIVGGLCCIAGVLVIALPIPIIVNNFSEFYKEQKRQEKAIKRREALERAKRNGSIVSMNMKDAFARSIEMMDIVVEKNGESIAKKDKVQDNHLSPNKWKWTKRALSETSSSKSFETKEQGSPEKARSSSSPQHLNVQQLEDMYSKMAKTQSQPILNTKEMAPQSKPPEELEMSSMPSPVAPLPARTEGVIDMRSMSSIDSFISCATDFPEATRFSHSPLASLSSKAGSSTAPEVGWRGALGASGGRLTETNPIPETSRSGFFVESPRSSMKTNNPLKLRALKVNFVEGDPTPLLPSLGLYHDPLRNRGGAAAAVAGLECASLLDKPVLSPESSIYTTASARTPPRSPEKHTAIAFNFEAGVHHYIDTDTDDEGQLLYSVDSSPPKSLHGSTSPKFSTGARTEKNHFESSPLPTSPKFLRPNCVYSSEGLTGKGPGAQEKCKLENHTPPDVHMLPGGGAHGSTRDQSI
Briefly: Inhibition of rat potassium channel Kv2.1 by patch-clamp method. On the technique in general: The patch-clamp technique gives a direct electrical read-out from membranes.

Data set [2] is described as follows: (§1) Half life in Wistar rat at 17 mg/kg. iv. Format: ADME, organism-based. On the set-up: dose 17 mg/kg, route intravenous. To be noted: Wistar, in vivo.
Data set [3] can be described thus: in vivo. To be noted: CD1, mouse, iv.
Description: Toxicity in intravenously dosed CD1 mouse
Data set [4] has as its target Sodium channel protein type 5 subunit alpha (Homo sapiens, UniProt Q14524).
Description: Inhibition of human heart sodium channel Nav1.5 by patch-clamp method
The nature of data set [5]: (§2) Volume of distribution at steady state in Wistar rat at 17 mg/kg. iv. Format: ADME, organism-based. On the set-up: dose 17 mg/kg, route intravenous. To be noted: Wistar, in vivo, read-out: Vdss.
The test system of data set [6] is Rattus norvegicus. Briefly: (§3) Oral bioavailability in Wistar rat at 34 mg/kg. […]. Format: ADME, organism-based. The note with it: in vivo.
Data set [7] concerns Rattus norvegicus. Kind of data set: CNS toxicity in iv dosed Sprague-Dawley rat assessed as cumulative convulsion dose. Format: organism-based. To be noted: in vivo.
Data set [8] has as its target T2, A-type voltage-gated potassium channel KCND2 (Rattus norvegicus, UniProt Q63881).
T2 sequence (Q63881 whole entry): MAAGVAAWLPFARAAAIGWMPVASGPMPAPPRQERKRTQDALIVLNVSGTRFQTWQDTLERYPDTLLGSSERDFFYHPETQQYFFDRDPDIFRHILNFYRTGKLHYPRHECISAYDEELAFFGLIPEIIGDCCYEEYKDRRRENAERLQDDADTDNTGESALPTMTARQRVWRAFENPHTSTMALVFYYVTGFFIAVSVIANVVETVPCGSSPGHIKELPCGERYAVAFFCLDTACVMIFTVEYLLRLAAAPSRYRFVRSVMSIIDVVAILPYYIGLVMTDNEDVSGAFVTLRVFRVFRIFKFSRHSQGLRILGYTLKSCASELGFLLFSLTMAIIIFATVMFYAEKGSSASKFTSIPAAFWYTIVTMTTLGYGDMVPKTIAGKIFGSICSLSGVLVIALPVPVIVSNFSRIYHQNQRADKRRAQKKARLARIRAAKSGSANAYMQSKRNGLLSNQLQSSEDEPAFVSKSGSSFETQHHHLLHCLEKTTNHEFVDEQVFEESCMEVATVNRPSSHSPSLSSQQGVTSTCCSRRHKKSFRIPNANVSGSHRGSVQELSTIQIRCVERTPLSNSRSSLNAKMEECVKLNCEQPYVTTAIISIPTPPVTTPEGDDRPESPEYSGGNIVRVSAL
Kind of data set: Inhibition of rat potassium channel Kv4.2 by patch-clamp method.

Data set [9] has as its system Rattus norvegicus. Kind of data set: Antiarrhythmic activity in intravenously dosed Sprague-Dawley rat with ischemia-induced arrhythmia. The class given is functional, Heart.
A short description of data set [10]: Clearance in Wistar rat at 17 mg/kg. iv. The class given is ADME, organism-based. On the set-up: dose 17 mg/kg, route intravenous. To be noted: in vivo.
Data set [11] deals with Potassium voltage-gated channel subfamily A member 5 (Homo sapiens, UniProt P22460). Kind of data set: Inhibition of human potassium channel Kv1.5 by patch-clamp method.
Potassium voltage-gated channel subfamily A member 5, sequence (P22460 whole entry): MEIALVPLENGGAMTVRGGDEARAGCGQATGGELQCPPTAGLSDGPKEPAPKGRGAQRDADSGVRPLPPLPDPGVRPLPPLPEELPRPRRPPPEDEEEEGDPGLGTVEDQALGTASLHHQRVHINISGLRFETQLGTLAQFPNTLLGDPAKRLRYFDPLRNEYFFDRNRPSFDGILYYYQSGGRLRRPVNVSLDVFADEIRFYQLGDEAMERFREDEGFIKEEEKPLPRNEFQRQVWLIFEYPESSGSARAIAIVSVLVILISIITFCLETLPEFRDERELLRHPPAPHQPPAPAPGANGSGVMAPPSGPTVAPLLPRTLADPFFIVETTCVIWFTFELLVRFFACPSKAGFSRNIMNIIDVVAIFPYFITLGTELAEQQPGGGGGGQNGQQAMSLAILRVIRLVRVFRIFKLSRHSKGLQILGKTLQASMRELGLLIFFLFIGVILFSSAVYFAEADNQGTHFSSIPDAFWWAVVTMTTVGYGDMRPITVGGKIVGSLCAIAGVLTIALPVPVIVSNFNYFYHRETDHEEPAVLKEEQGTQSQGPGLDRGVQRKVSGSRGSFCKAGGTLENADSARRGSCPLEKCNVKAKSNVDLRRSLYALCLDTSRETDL
Data set [12] concerns Rattus norvegicus. The data set is described as §1. Format: ADME, organism-based. On the set-up: dose 17 mg/kg, route intravenous. The note with it: in vivo.
The subject of data set [13] is Rattus norvegicus. Described as §2. The class given is ADME, organism-based. The note with it: in vivo. On the set-up: dose 17 mg/kg, route intravenous.
For data set [14], the system named is Rattus norvegicus. Briefly: Hemodynamic effect in intravenously dosed Sprague-Dawley rat with ischemia-induced arrhythmia assessed as dose producing 10% reduction in systemic blood pressure. The class given is functional.
The species entered for data set [15] is Canis familiaris. Kind of data set: Effect on Mongrel dog sterile pericarditis atrial fibrillation model assessed as conversion of atrial fibrillation to normal sinus rhythm. The class given is functional, organism-based. To be noted: Canis lupus familiaris; Cardiac atrium.
The nature of data set [16]: Clearance in Wistar rat at 12 mg/kg. iv. Format: ADME, organism-based. On the set-up: dose 12 mg/kg, route intravenous. The note with it: in vivo.
For data set [17], the species on record is Canis familiaris. Kind of data set: Reduction of heart rate in Mongrel dog vagal atrial fibrillation model. The class given is functional, organism-based. The note with it: Canis lupus familiaris.
A short description of data set [18]: Volume of distribution at steady state in Wistar rat at 12 mg/kg. iv. The note with it: in vivo, read-out: Vdss. On the set-up: dose 12 mg/kg, route intravenous. The class given is ADME, organism-based.
Data set [19] is filed under the species Canis familiaris. Kind of data set: Effect on Mongrel dog vagal atrial fibrillation model assessed as dose for conversion of atrial fibrillation to normal sinus rhythm. The class given is functional, Canis lupus familiaris, Cardiac atrium.
Data set [20] in a line: Half life in Wistar rat at 12 mg/kg. iv. Format: ADME, organism-based. On the set-up: dose 12 mg/kg, route intravenous. To be noted: in vivo.
The species named for data set [21] is Canis familiaris. Briefly: Effect on Mongrel dog sterile pericarditis atrial fibrillation model assessed as dose for conversion of atrial fibrillation to normal sinus rhythm. Format: functional, Canis lupus familiaris, Cardiac atrium.
The species entered for data set [22] is Canis familiaris. Kind of data set: Effect on Mongrel dog vagal atrial fibrillation model assessed as conversion of atrial fibrillation to normal sinus rhythm. Format: functional, organism-based. To be noted: Canis lupus familiaris; Cardiac atrium.
The species entered for data set [23] is Canis familiaris. Kind of data set: Reduction of blood pressure in Mongrel dog vagal atrial fibrillation model. The class given is functional, organism-based. To be noted: Canis lupus familiaris.
Data set [24] in a line: Oral bioavailability in Wistar rat at 24 mg/kg. […]. Format: ADME, organism-based. To be noted: in vivo.
The nature of data set [25]: as §3. Format: ADME, organism-based. To be noted: Wistar, in vivo, oral.

Sodium channel protein type 5 subunit alpha, sequence (Q14524 whole entry): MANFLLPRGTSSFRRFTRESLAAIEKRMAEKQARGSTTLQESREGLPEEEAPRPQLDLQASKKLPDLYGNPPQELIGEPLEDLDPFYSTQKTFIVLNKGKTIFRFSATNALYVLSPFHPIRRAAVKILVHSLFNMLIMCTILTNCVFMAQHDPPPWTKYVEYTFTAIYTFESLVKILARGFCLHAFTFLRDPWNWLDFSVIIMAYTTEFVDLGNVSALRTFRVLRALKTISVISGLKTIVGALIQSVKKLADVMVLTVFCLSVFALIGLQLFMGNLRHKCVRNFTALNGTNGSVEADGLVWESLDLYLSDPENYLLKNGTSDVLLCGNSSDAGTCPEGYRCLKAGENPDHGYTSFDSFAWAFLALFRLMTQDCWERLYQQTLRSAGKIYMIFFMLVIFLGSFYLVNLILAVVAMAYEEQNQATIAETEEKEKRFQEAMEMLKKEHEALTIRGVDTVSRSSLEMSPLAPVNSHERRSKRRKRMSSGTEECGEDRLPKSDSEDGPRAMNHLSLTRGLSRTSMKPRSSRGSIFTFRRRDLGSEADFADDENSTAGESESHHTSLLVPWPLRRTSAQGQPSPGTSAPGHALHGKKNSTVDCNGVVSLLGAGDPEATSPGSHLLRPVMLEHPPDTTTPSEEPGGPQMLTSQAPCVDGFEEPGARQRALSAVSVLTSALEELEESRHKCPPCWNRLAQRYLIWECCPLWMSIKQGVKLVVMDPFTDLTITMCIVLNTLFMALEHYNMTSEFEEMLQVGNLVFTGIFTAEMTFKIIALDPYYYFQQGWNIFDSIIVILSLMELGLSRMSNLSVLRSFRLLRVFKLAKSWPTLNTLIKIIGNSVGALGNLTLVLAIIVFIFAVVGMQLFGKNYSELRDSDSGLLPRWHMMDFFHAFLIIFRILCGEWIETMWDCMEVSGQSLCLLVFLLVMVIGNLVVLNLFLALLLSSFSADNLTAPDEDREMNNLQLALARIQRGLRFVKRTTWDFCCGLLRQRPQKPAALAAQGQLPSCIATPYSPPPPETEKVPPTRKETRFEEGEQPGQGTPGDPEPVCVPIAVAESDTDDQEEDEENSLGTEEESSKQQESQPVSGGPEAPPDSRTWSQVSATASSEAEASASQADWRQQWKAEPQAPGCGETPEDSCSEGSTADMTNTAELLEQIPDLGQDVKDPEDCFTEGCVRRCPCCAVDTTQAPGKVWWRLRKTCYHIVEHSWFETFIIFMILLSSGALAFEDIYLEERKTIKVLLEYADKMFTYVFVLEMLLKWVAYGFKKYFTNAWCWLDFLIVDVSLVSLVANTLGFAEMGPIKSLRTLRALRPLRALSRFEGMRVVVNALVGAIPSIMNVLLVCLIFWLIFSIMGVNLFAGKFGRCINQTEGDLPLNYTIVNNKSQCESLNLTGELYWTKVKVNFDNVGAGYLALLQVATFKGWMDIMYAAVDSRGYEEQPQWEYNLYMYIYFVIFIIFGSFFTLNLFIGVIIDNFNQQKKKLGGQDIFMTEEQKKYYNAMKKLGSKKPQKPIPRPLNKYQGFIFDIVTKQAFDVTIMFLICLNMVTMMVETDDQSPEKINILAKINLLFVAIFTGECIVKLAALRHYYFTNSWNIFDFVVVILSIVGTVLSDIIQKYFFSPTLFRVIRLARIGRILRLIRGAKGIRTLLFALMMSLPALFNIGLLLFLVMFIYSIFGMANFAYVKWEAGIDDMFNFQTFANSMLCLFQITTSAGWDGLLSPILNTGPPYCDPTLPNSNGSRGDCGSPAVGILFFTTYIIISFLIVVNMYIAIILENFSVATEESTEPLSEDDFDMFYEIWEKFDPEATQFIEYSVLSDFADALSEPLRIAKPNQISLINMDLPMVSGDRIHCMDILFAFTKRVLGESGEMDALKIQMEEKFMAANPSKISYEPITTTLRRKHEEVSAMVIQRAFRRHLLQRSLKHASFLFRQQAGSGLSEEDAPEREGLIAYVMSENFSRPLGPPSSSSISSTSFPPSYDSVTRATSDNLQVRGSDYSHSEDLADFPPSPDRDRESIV

As to `O=C1CCN([C@@H]2CCCC[C@H]2OCCc2cccc3ccccc23)C1` (stereo in doubt; 26), the pIC50 (usually the IC50 on a negative log10 scale, so that one unit is a factor of ten) in data set [1] is 5.55; in data set [4], 4.60; in data set [8] it was 5.05; in data set [11] it was 5.37. Also, the half-life (in general, how long it takes for the measured level to halve) in data set [2] was 6.3 h. The LD50 (commonly the dose at which mortality reaches 50%) in data set [3] amounted to 227 µmol/kg. Also, the Vd in data set [5] is 4.5 L/kg. In data set [6], this compound returned an F of 58%. Besides, the Activity in data set [7] turned out to be 225 µmol/kg. For the same compound, in data set [9], the ED50 (commonly the dose that gives a 50% effect, or the effect in half of the subjects) stood at 0.4 µmol/kg/min. Also, in [10], the clearance (in general, a measure of how efficiently the substance is removed, as volume per time) was determined as 38.7 mL/min/kg.

On to `O=C1CCN([C@@H]2CCCC[C@H]2OCCc2cccc3ccccc23)C1` (stereo in doubt; 40), for which the pIC50 in [1] is 5.22; in data set [4], 4.96; in data set [8] it was 4.96; in [11], 5.23. Also, the t1/2 in data set [12] was 3.8 h. Moreover, the Vdss – broadly, the apparent volume that relates the amount in the body to the concentration in plasma or blood – in data set [13] was determined as 8.3 L/kg. Besides, the F in data set [6] was found to be 6%. For the same compound, in data set [7], the Activity came out at 193 µmol/kg. The compound further gave an ED50 in data set [9] of 1.2 µmol/kg/min.

Regarding `CCCCc1oc2ccccc2c1C(=O)c1cc(I)c(OCCN(CC)CC)c(I)c1` [AMIODARONE], the Activity in data set [14] was determined as 4 µmol/kg/min.

Regarding `Clc1ccc(CCO[C@@H]2CCCC[C@H]2N2CCOCC2)cc1Cl`, the pIC50 is 5.62 in data set [1], 4.82 in data set [4], 4.96 in data set [8] and 5.44 in [11]. Moreover, the result in data set [15] and in data set [22] was Active. In [3], this compound yielded an LD50 of 228 µmol/kg. Besides, the clearance in data set [16] is 48.5 mL/min/kg. Besides, the result in data set [17] and in data set [23] was inactive. The results for the Activity in data set [7], in data set [19] and in data set [21] were 118 µmol/kg, 17 µmol/kg and 10 µmol/kg, respectively. Moreover, the Vd in data set [18] was 19 L/kg. For the same compound, in data set [20], the half-life was 4.5 h. The ED50 in [9] was determined as 1.5 µmol/kg/min. Besides, the bioavailability (commonly the share of a dose that reaches the circulation, judged against a reference dose that is usually intravenous) in [24] stood at 7%.

With `O=C1CCN([C@H]2CCCC[C@@H]2OCCc2cccc3ccccc23)C1`, the pIC50 was 5.10 in [1], 4.89 in data set [4], 5.05 in data set [8] and 5.11 in data set [11]. This compound gave a half-life in data set [2] of 1 h. Besides, in data set [5], the Vd came to 2.6 L/kg. The same compound had a bioavailability in data set [25] of 32%. In data set [7], the Activity turned out to be 150 µmol/kg. In addition, in data set [9], the ED50 was found to be 1.9 µmol/kg/min. The compound further displayed a clearance in [10] of 30.2 mL/min/kg.

`c1ccc2c(CCO[C@@H]3CCCC[C@H]3N3CCOCC3)cccc2c1`: the pIC50 is 5.49 in data set [1], 5.40 in data set [4], 4.77 in data set [8] and 5.89 in data set [11]. For the same compound, the outcome in [15] was Active. This compound showed an LD50 in data set [3] of 42 µmol/kg. In addition, the clearance in [16] stood at 50.1 mL/min/kg. In addition, the result in data set [17] and in data set [23] was inactive. The Activity in data set [7] is 93 µmol/kg; in data set [21], 8 µmol/kg. In [18], the Vd came to 29 L/kg. In data set [20], this compound gave a half-life of 6.5 h. In data set [9], this compound displayed an ED50 of 0.8 µmol/kg/min. This compound registered a bioavailability in data set [24] of 4%.
